Experimental data published in patent US20150031674A1, “SERINE/THREONINE KINASE INHIBITORS” (GENENTECH, INC., priority 2013, published 2015).
pIC50, pKi: −log10 of the molar value.

Legend:
[1] = tested on: group I PAKs in EBC1 cells (MEK1 phosphorylation at S298); test: Cellular PAK IC50 Assay: MEK1 phosphorylation at S298 by HTRF; format: cell-based; details: Homo sapiens, EBC-1, 2 h treatment, media containing 0.1% FBS, phospho-MEK1 (S298) HTRF
Description: Cellular PAK IC50 Assay Protocol
Group I PAKs (PAK1-3) are activated upon binding to the Rho GTPases, Rac1 and Cdc42. Activated group I PAKs phosphorylate MEK1 at Serine 298 (S298), one of the two sites in the catalytic domain that is important for stable association between Raf and MEK1 and subsequent MAPK activation. The inhibition of group I PAKs in EBC1 cells is assessed by detecting changes in the level of MEK1 phosphorylation at S298 using homogenous time-resolved fluorescence (HTRF). Inhibitory activity was estimated by treating 2×10^4 EBC1 cells for 2 h with PAK inhibitors in media containing 0.1% FBS. Following inhibitor treatment, cells were lysed with 25 μL of 1× cellular kinase lysis buffer (Cisbio) containing 1× cellular kinase blocking reagent (Cisbio). Cellular lysis was carried out at 4° C. for 2 h with constant shaking before lysate (16 μL) was transferred to white 384-well ProxiPlates™ (Perkin Elmer). Anti-total MEK1 antibody labeled with Europium cryptate donor (1 ng/well) (Cell Signaling Technologies catalog number 2352) and anti-phospho MEK1 (S298) antibody labeled with d2 acceptor (Cell Signaling Technologies catalog number 9128) (10 ng/well) were prepared in 1× detection buffer (CisBio) and added to each well of the assay plate and allowed to incubate at RT overnight. The following day the fluorescence emission from each well was measured in EnVision® (Perkin Elmer) at an excitation of 330 nm and dual emission wavelengths of 615 nm and 665 nm. The signal in each well at 665 nm was multiplied by 10,000 and divided by the signal in the same well at 615 nm to obtain a ratio. Ratio values ([665·10,000]÷615) were plotted as a function of the concentration of compound to determine IC50 values.

[2] = molecular target: human recombinant PAK1-KD protein (Homo sapiens, UniProt Q13153); test: PAK1-KD (Kinase Domain) IC50 Zlyte Assay (FRET peptide substrate phosphorylation); details: Z'-LYTE, Biological Example 1
Sequence of human recombinant PAK1-KD protein (Q13153 270-521 limits assumed): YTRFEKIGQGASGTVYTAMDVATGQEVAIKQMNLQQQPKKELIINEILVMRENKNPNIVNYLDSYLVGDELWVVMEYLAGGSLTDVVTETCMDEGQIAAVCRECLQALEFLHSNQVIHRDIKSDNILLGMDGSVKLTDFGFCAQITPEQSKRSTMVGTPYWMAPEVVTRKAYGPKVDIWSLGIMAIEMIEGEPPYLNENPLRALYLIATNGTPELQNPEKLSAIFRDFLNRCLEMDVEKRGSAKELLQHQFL

Row | SMILES | pIC50 [1] | pKi [2]
1 | Cc1cccc(-c2ccc(-c3cc4cnc(N)nc4n(CCC4CNCCO4)c3=O)c(Cl)c2)n1 (racemic) [Example I-127, 2-Amino-6-[2-chloro-4-(6-methyl-2-pyridyl)phenyl]-8-(2-morpholin-2-ylethyl)pyrido[2,3-d]pyrimidin-7-one] | 7.42 | 8.42
2 | CCNc1ncc2cc(-c3ccc(-c4cncc(C)n4)cc3Cl)c(=O)n(CCC3CCCN3)c2n1 (single isomer, unassigned) [Example I-19] | 6.54 | 7.57
3 | CCNc1ncc2cc(-c3ccc(-c4cncc(C)n4)cc3Cl)c(=O)n(CCC3CNCCO3)c2n1 (single isomer, unassigned) [Example I-22] | 7.20 | 8.05
4 | CCNc1ncc2cc(-c3ccc(-c4cncc(C)n4)cc3Cl)c(=O)n(CCOC3CCNC3)c2n1 (single isomer, unassigned) [Example I-52] | 6.81 | 8.25
5 | CCNc1ncc2cc(-c3ccc(-c4cncc(C)n4)cc3Cl)c(=O)n(CC(C)OC3CNC3)c2n1 (single isomer, unassigned) [Example I-91, 8-[2-(Azetidin-3-yloxy)propyl]-6-[2-chloro-4-(6-methylpyrazin-2-yl)phenyl]-2-(ethylamino)pyrido[2,3-d]pyrimidin-7-one] | 6.97 | 8.15
6 | CCNc1ncc2cc(-c3ccc(-c4cncc(C)n4)cc3Cl)c(=O)n(CCCN)c2n1 [Example I-1, 8-(3-Aminopropyl)-6-[2-chloro-4-(6-methylpyrazin-2-yl)phenyl]-2-(ethylamino)pyrido[2,3-d]pyrimidin-7-one] | 6.60 | 8.08
7 | CCNc1ncc2cc(-c3ccc(-c4cncc(C)n4)cc3Cl)c(=O)n(CCCC(N)=O)c2n1 [Example I-3, 4-[6-[2-Chloro-4-(6-methylpyrazin-2-yl)phenyl]-2-(ethylamino)-7-oxo-pyrido[2,3-d]pyrimidin-8-yl]butanamide] | 6.30 | 7.32
8 | CCNc1ncc2cc(-c3ccc(-c4cncc(C)n4)cc3Cl)c(=O)n(CCN3CCNCC3)c2n1 [Example I-4, 6-(2-Chloro-4-(6-methylpyrazin-2-yl)phenyl)-2-(ethylamino)-8-(2-(piperazin-1-yl)ethyl)pyrido[2,3-d]pyrimidin-7(8H)-one] | 7.02 | 8.19
9 | CCNc1ncc2cc(-c3ccc(-c4cncc(C)n4)cc3Cl)c(=O)n(C[C@H]3CC[C@H](N)CC3)c2n1 [Example I-5, 8-(((1r,4r)-4-aminocyclohexyl)methyl)-6-(2-chloro-4-(6-methylpyrazin-2-yl)phenyl)-2-(ethylamino)pyrido[2,3-d]pyrimidin-7(8H)-one] | 6.83 | 
10 | CCNc1ncc2cc(-c3ccc(-c4cncc(C)n4)cc3Cl)c(=O)n(CC3CCNCC3)c2n1 [Example I-6, 6-(2-Chloro-4-(6-methylpyrazin-2-yl)phenyl)-2-(ethylamino)-8-(piperidin-4-ylmethyl)pyrido[2,3-d]pyrimidin-7(8H)-one] | 6.77 | 
11 | CCNc1ncc2cc(-c3ccc(-c4cncc(C)n4)cc3Cl)c(=O)n(CC(=O)N3CCNCC3)c2n1 [Example I-8, 6-(2-Chloro-4-(6-methylpyrazin-2-yl)phenyl)-2-(ethylamino)-8-(2-oxo-2-(piperazin-1-yl)ethyl)pyrido[2,3-d]pyrimidin-7(8H)-one] | 5.82 | 7.51
12 | Cc1cncc(-c2ccc(-c3cc4cnc(N)nc4n(C[C@H]4CC[C@H](N)CC4)c3=O)c(Cl)c2)n1 [Example I-9, 2-Amino-8-(((1r,4r)-4-aminocyclohexyl)methyl)-6-(2-chloro-4-(6-methylpyrazin-2-yl)phenyl)pyrido[2,3-d]pyrimidin-7(8H)-one] | 6.45 | 7.85
13 | CCNc1ncc2cc(-c3ccc(-c4cncc(C)n4)cc3Cl)c(=O)n(C[C@H]3CC[C@H](N(C)C)CC3)c2n1 [Example I-10, 6-(2-Chloro-4-(6-methylpyrazin-2-yl)phenyl)-8-(((1r,4r)-4-(dimethylamino)cyclohexyl)methyl)-2-(ethylamino)pyrido[2,3-d]pyrimidin-7(8H)-one] | 6.56 | 7.67
14 | CCNc1ncc2cc(-c3ccc(-c4cncc(C)n4)cc3Cl)c(=O)n(CCOC3CNC3)c2n1 [Example I-11, 8-(2-(Azetidin-3-yloxy)ethyl)-6-(2-chloro-4-(6-methylpyrazin-2-yl)phenyl)-2-(ethylamino)pyrido[2,3-d]pyrimidin-7(8H)-one] | 6.72 | 8.16
15 | CCNc1ncc2cc(-c3ccc(-c4cncc(C)n4)cc3Cl)c(=O)n(CCOCCN)c2n1 [Example I-12, 8-(2-(2-Aminoethoxy)ethyl)-6-(2-chloro-4-(6-methylpyrazin-2-yl)phenyl)-2-(ethylamino)pyrido[2,3-d]pyrimidin-7(8H)-one] | 6.88 | 8.37
16 | CCNc1ncc2cc(-c3ccc(-c4cncc(C)n4)cc3Cl)c(=O)n(CCOC3CCNC3)c2n1 (stereo not shown) [Example I-13, 6-(2-Chloro-4-(6-methylpyrazin-2-yl)phenyl)-2-(ethylamino)-8-(2-(pyrrolidin-3-yloxy)ethyl)pyrido[2,3-d]pyrimidin-7(8H)-one] | 6.74 | 8.24
17 | CCNc1ncc2cc(-c3ccc(-c4cncc(C)n4)cc3Cl)c(=O)n(CCOC3CCCNC3)c2n1 (stereo not shown) [Example I-14, 6-(2-Chloro-4-(6-methylpyrazin-2-yl)phenyl)-2-(ethylamino)-8-(2-(piperidin-3-yloxy)ethyl)pyrido[2,3-d]pyrimidin-7(8H)-one] | 6.61 | 7.83
18 | CCNc1ncc2cc(-c3ccc(-c4cccc(C)n4)cc3Cl)c(=O)n(C[C@H]3CC[C@H](N)CC3)c2n1 [Example I-15, 8-(((1r,4r)-4-Aminocyclohexyl)methyl)-6-(2-chloro-4-(6-methylpyridin-2-yl)phenyl)-2-(ethylamino)pyrido[2,3-d]pyrimidin-7(8H)-one] | 7.33 | 
19 | CCNc1ncc2cc(-c3ccc(-c4ncccc4C)cc3Cl)c(=O)n(C[C@H]3CC[C@H](N)CC3)c2n1 [Example I-16, 8-(((1r,4r)-4-Aminocyclohexyl)methyl)-6-(2-chloro-4-(3-methylpyridin-2-yl)phenyl)-2-(ethylamino)pyrido[2,3-d]pyrimidin-7(8H)-one] | 7.12 | 8.14
20 | CCNc1ncc2cc(-c3ccc(-c4cncc(C)n4)cc3Cl)c(=O)n(C[C@H]3CC[C@H](NC)CC3)c2n1 [Example I-17, 6-(2-Chloro-4-(6-methylpyrazin-2-yl)phenyl)-2-(ethylamino)-8-(((1r,4r)-4-(methylamino)cyclohexyl)methyl)pyrido[2,3-d]pyrimidin-7(8H)-one] | 7.02 | 8.32
21 | CNc1ncc2cc(-c3ccc(-c4cncc(C)n4)cc3Cl)c(=O)n(CCCN)c2n1 [Example I-18, 8-(3-Aminopropyl)-6-[2-chloro-4-(6-methylpyrazin-2-yl)phenyl]-2-(methylamino)pyrido[2,3-d]pyrimidin-7-one] | 6.29 | 7.86
22 | CCNc1ncc2cc(-c3ccc(-c4cccc(C)n4)cc3C)c(=O)n(CCOC3CNC3)c2n1 [Example I-31, 8-(2-(azetidin-3-yloxy)ethyl)-2-(ethylamino)-6-(2-methyl-4-(6-methylpyridin-2-yl)phenyl)pyrido[2,3-d]pyrimidin-7(8H)-one] | 6.90 | 8.34
23 | CCNc1ncc2cc(-c3ccc(-c4cccc(C)n4)cc3Cl)c(=O)n(CC3CCNCC3)c2n1 [Example I-44, 6-(2-Chloro-4-(6-methylpyridin-2-yl)phenyl)-2-(ethylamino)-8-(piperidin-4-ylmethyl)pyrido[2,3-d]pyrimidin-7(8H)-one] | 7.14 | 8.34
24 | Cc1cncc(-c2ccc(-c3cc4cnc(N)nc4n(CC4OCC(N)CO4)c3=O)c(Cl)c2)n1 (stereo not shown) [Example I-56, 2-Amino-8-[((2s,5s)-5-amino-1,3-dioxan-2-yl)methyl]-6-[2-chloro-4-(6-methylpyrazin-2-yl)phenyl]pyrido[2,3-d]pyrimidin-7-one and 2-amino-8-[((2r,5r)-5-amino-1,3-dioxan-2-yl)methyl]-6-[2-chloro-4-(6-methylpyrazin-2-yl)phenyl]pyrido[2,3-d]pyrimidin-7-one] | 6.37 | 7.73
25 | CCNc1ncc2cc(-c3ccc(-c4cccc(C)n4)cc3Cl)c(=O)n(CCOCCN)c2n1 [Example I-64, 8-[2-(2-Aminoethoxy)ethyl]-6-[2-chloro-4-(6-methyl-2-pyridyl)phenyl]-2-(ethylamino)pyrido[2,3-d]pyrimidin-7-one] | 7.45 | 8.55
26 | CCNc1ncc2cc(-c3ccc(-c4cccc(C)n4)cc3C)c(=O)n(CCCC(N)=O)c2n1 [Example I-70, 4-[2-(Ethylamino)-6-[2-methyl-4-(6-methyl-2-pyridyl)phenyl]-7-oxo-pyrido[2,3-d]pyrimidin-8-yl]butanamide] | 6.54 | 7.76
